Our source for the IC50 values is US20240376099A1, “COMPOUNDS AND COMPOSITIONS AS INHIBITORS OF ENDOSOMAL TOLL-LIKE RECEPTORS” (Novartis AG, priority 2016, published 2024).

The assay has as its target T1, TLR7 (Homo sapiens, UniProt Q9NYK1).
T1 construct: Fresh blood was collected from normal human donors; endogenous in cells; host or cells: human PBMCs from fresh donor blood
T1 sequence (Q9NYK1 27-1049): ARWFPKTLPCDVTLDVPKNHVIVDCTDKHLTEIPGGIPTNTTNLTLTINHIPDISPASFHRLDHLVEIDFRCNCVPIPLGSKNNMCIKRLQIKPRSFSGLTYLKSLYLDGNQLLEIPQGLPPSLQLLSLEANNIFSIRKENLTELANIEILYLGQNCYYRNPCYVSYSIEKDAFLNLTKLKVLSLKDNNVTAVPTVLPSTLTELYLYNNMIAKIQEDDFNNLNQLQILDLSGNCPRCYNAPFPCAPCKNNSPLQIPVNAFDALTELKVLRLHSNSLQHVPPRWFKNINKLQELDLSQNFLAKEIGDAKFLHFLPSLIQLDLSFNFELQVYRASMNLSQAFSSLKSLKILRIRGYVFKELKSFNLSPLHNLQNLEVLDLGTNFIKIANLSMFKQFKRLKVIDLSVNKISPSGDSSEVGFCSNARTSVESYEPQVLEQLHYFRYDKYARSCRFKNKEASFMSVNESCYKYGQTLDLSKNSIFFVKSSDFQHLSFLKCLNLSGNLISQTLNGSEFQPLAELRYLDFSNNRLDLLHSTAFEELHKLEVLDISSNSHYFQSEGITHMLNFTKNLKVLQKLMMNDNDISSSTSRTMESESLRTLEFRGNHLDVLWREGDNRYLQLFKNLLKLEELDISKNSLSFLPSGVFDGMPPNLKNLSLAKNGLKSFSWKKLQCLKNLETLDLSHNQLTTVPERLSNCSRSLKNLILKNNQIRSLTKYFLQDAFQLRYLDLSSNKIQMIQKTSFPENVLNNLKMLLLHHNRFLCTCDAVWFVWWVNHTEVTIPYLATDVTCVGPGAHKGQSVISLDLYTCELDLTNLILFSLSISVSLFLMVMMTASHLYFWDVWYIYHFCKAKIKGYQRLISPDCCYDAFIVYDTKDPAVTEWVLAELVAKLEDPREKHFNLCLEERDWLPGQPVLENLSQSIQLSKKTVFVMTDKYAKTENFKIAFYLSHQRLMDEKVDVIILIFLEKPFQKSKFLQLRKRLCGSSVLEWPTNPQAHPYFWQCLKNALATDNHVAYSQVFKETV
Nature of the assay: huPBMC TLR7 Antagonist IFNα Assay. Format: cell-based. As to conditions: human PBMCs stimulated with ssRNA40 10 μg/mL (DOTAP), 14-16 hrs; IFNα2b AlphaLISA read-out. Put shortly: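 Human PBMCs from fresh donor blood (150,000 cells/well) stimulated 14–16 h at 37 °C with DOTAP-complexed ssRNA40 (final 1 μg/ml for TLR8, 10 μg/mL for TLR7) or ODN2216 (final 0.3 μM, TLR9), 0.25% DMSO, ten-point 1/3 compound dilutions. Supernatant IL-6 read by HTRF (TLR8); IFNα by IFNα2b AlphaLISA (TLR7/TLR9).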

By IC50 is commonly meant the concentration at which inhibition is half-maximal.

Regarding `Cc1nn(CC23CCC(N)(CC2)CC3)c2c1CN(c1ccnc(-c3ccc(C#N)cc3)c1)CC2` [Compound No. 84, 4-(4-(1-((4-aminobicyclo[2.2.2]octan-1-yl)methyl)-3-methyl-6,7-dihydro-1H-pyrazolo[4,3-c]pyridin-5(4H)-yl)pyridin-2-yl)benzonitrile], the IC50 stood at 302 nM. With `Cc1cc(N2CCc3c(c(C)nn3CC34CCC(O)(CC3)CC4)C2)c2cnn(C)c2n1` [compound 46, 4-((5-(1,6-dimethyl-1H-pyrazolo[3,4-b]pyridin-4-yl)-3-methyl-4,5,6,7-tetrahydro-1H-pyrazolo[4,3-c]pyridin-1-yl)methyl)bicyclo[2.2.2]octan-1-ol], the IC50 was found to be 56 nM. With `Cc1cc(N2CCc3nn(CC45CC(N)(C4)C5)c(C)c3C2)c2cnn(C)c2n1` [compound 52, 3-((5-(1,6-dimethyl-1H-pyrazolo[3,4-b]pyridin-4-yl)-3-methyl-4,5,6,7-tetrahydro-2H-pyrazolo[4,3-c]pyridin-2-yl)methyl)bicyclo[1.1.1]pentan-1-amine] the figure was 304 nM.

Consider `Cc1cc(N2CCc3c(c(C)nn3CC34CCC(NC5CCC5)(CC3)CC4)C2)c2cnn(C)c2n1` [compound 54, N-cyclobutyl-4-((5-(1,6-dimethyl-1H-pyrazolo[3,4-b]pyridin-4-yl)-3-methyl-4,5,6,7-tetrahydro-1H-pyrazolo[4,3-c]pyridin-1-yl)methyl)bicyclo[2.2.2]octan-1-amine], for which the half-inhibitory concentration (IC50) came to 4 nM.

As for `Cc1cc(N2CCc3c(c(C)nn3CC34CCC(NC(C)C)(CC3)CC4)C2)c2cnn(C)c2n1` [compound 55, 4-((5-(1,6-dimethyl-1H-pyrazolo[3,4-b]pyridin-4-yl)-3-methyl-4,5,6,7-tetrahydro-1H-pyrazolo[4,3-c]pyridin-1-yl)methyl)-N-isopropylbicyclo[2.2.]octan-1-amine], the concentration for half-maximal inhibition (IC50) is 5 nM. With `Cc1cc(N2CCc3c(c(C)nn3CC34CCC(NC(C)CO)(CC3)CC4)C2)c2cnn(C)c2n1` (stereo not drawn) [compound 56, 2-((4-((5-(1,6-dimethyl-1H-pyrazolo[3,4-b]pyridin-4-yl)-3-methyl-4,5,6,7-tetrahydro-1H-pyrazolo[4,3-c]pyridin-1-yl)methyl)bicyclo[2.2.2]octan-1-yl)amino)propan-1-ol] the figure was 7 nM; with `CCNC12CCC(Cn3nc(C)c4c3CCN(c3cc(C)nc5c3cnn5C)C4)(CC1)CC2` [compound 57, 4-((5-(1,6-dimethyl-1H-pyrazolo[3,4-b]pyridin-4-yl)-3-methyl-4,5,6,7-tetrahydro-1H-pyrazolo[4,3-c]pyridin-1-yl)methyl)-N-ethylbicyclo[2.2.]octan-1-amine], 7 nM; with `Cc1cc(N2CCc3c(c(C)nn3CC34CCC(N5CCC5)(CC3)CC4)C2)c2cnn(C)c2n1` [compound 64, 1-((4-(azetidin-1-yl)bicyclo[2.2.2]octan-1-yl)methyl)-5-(1,6-dimethyl-1H-pyrazolo[3,4-b]pyridin-4-yl)-3-methyl-4,5,6,7-tetrahydro-1H-pyrazolo[4,3-c]pyridine], 4 nM. Regarding `CCOCCNC12CCC(Cn3nc(C)c4c3CCN(c3cc(C)nc5c3cnn5C)C4)(CC1)CC2` [compound 71, 4-((5-(1,6-dimethyl-1H-pyrazolo[3,4-b]pyridin-4-yl)-3-methyl-4,5,6,7-tetrahydro-1H-pyrazolo[4,3-c]pyridin-1-yl)methyl)-N-(2-ethoxyethyl)bicyclo[2.2.2]octan-1-amine], the IC50 is 5 nM. `CCOCCN(CCOCC)C12CCC(Cn3nc(C)c4c3CCN(c3cc(C)nc5c3cnn5C)C4)(CC1)CC2` [compound 72, 4-((5-(1,6-dimethyl-1H-pyrazolo[3,4-b]pyridin-4-yl)-3-methyl-4,5,6,7-tetrahydro-1H-pyrazolo[4,3-c]pyridin-1-yl)methyl)-N,N-bis(2-ethoxyethyl)bicyclo[2.2.2]octan-1-amine]: the IC50 amounted to 37 nM.

As to `Cc1cc(N2CCc3c(c(C)nn3CC34CCC(N5C[C@@H](O)[C@@H](O)C5)(CC3)CC4)C2)c2cnn(C)c2n1` [compound 74, (3S,4R)-1-(4-((5-(1,6-dimethyl-1H-pyrazolo[3,4-b]pyridin-4-yl)-3-methyl-4,5,6,7-tetrahydro-1H-pyrazolo[4,3-c]pyridin-1-yl)methyl)bicyclo[2.2.2]octan-1-yl)pyrrolidine-3,4-diol], the IC50 is 7 nM. For `Cc1cc(N2CCc3c(c(C)nn3CC34CCC(N5CC[C@H](O)C5)(CC3)CC4)C2)c2cnn(C)c2n1` [compound 75, (S)-1-(4-((5-(1,6-dimethyl-1H-pyrazolo[3,4-b]pyridin-4-yl)-3-methyl-4,5,6,7-tetrahydro-1H-pyrazolo[4,3-c]pyridin-1-yl)methyl)bicyclo[2.2.2]octan-1-yl)pyrrolidin-3-ol], the IC50 is 11 nM. With `Cc1cc(N2CCc3c(c(C)nn3CC34CCC(N(C)C5CCC5)(CC3)CC4)C2)c2cnn(C)c2n1` [compound 79, N-cyclobutyl-4-((5-(1,6-dimethyl-1H-pyrazolo[3,4-b]pyridin-4-yl)-3-methyl-4,5,6,7-tetrahydro-1H-pyrazolo[4,3-c]pyridin-1-yl)methyl)-N-methylbicyclo[2.2.2]octan-1-amine] the figure was 4 nM; with `Cc1cc(N2CCc3c(c(C)nn3CC34CCC(N5C[C@H](O)[C@@H](O)C5)(CC3)CC4)C2)c2cnn(C)c2n1` [compound 80, (3S,4S)-1-(4-((5-(1,6-dimethyl-1H-pyrazolo[3,4-b]pyridin-4-yl)-3-methyl-4,5,6,7-tetrahydro-1H-pyrazolo[4,3-c]pyridin-1-yl)methyl)bicyclo[2.2.2]octan-1-yl)pyrrolidine-3,4-diol], 2 nM; with `Cc1nn(CC23CCC(N4CCCC4)(CC2)CC3)c2c1CN(c1ccnc(-c3ccccc3)c1)CC2` [compound 85, 3-methyl-5-(2-phenylpyridin-4-yl)-1-((4-(pyrrolidin-1-yl)bicyclo[2.2.2]octan-1-yl)methyl)-4,5,6,7-tetrahydro-1H-pyrazolo[4,3-c]pyridine], 46 nM. On to `Cc1cc(N2CCc3c(c(C)nn3CC34CCC(N5CCCC5)(CC3)CC4)C2)c2ccncc2n1` [compound 86, 2-methyl-4-(3-methyl-1-((4-(pyrrolidin-1-yl)bicyclo[2.2.2]octan-1-yl)methyl)-6,7-dihydro-1H-pyrazolo[4,3-c]pyridin-5(4H)-yl)-1,7-naphthyridine], for which the IC50 is 81 nM. With `Cc1cc(N2CCc3c(c(C)nn3CCC34CCC(N)(CC3)CC4)C2)c2cnn(C)c2n1` [compound 91, 4-(2-(5-(1,6-dimethyl-1H-pyrazolo[3,4-b]pyridin-4-yl)-3-methyl-4,5,6,7-tetrahydro-1H-pyrazolo[4,3-c]pyridin-1-yl)ethyl)bicyclo[2.2.2]octan-1-amine] the figure was 22 nM. In the case of `Cc1cc(N2CCc3c(c(C)nn3CC34CCC(N)(CC3)CC4)C2)c2ccnc(C)c2n1` [compound 92, 4-((5-(2,8-dimethyl-1,7-naphthyridin-4-yl)-3-methyl-4,5,6,7-tetrahydro-1H-pyrazolo[4,3-c]pyridin-1-yl)methyl)bicyclo[2.2.2]octan-1-amine], the concentration for half-maximal inhibition (IC50) was found to be 160 nM.
